Data taken from the supplement of paper PMC10307832.

How the values were obtained:
Experiment in all cases: relative viability (nuclei count vs DMSO), 5 days (fraction); higher = more cells survive
[1] = compound: C(C(=O)C(=O)O)Br [Bromopyruvate] + COc1cc2c(Oc3ccc(NC(=O)C4(C(=O)Nc5ccc(F)cc5)CC4)cc3F)ccnc2cc1OCCCN1CCOCC1 [Foretinib] (partner 0.25 µM)
How it was run: (§1)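 Values are medians from duplicate plates. Each reflects relative viability, defined as the nuclei count of treated wells over that of vehicle wells. Lung cancer cell lines in 1536-well plates were pin-tool dosed one day after seeding with one drug alone or with a fixed anchor-drug dose plus five library-drug doses (not always all listed) in √10 steps, then fixed, stained and imaged at 4× after 5 days.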

Bicalutamide + Olaparib = compound: CC(O)(CS(=O)(=O)c1ccc(F)cc1)C(=O)Nc1ccc(C#N)c(C(F)(F)F)c1 [Bicalutamide] + O=C(c1cc(Cc2n[nH]c(=O)c3ccccc23)ccc1F)N1CCN(C(=O)C2CC2)CC1 [Olaparib] (partner 8 µM)
How it was run: as §1

[2] = compound: C(C(=O)C(=O)O)Br [Bromopyruvate] + CS(=O)(=O)CCNCc1ccc(-c2ccc3ncnc(Nc4ccc(OCc5cccc(F)c5)c(Cl)c4)c3c2)o1 [Lapatinib] (partner 2 µM)
How it was run: as §1

Bicalutamide + Dasatinib = compound: CC(O)(CS(=O)(=O)c1ccc(F)cc1)C(=O)Nc1ccc(C#N)c(C(F)(F)F)c1 [Bicalutamide] + Cc1nc(Nc2ncc(C(=O)Nc3c(C)cccc3Cl)s2)cc(N2CCN(CCO)CC2)n1 [Dasatinib] (partner 0.075 µM)
How it was run: as §1

**Q.** How did the relative viability ([1]; first compound 1 µM) turn out when UMC-11 was run?
**A.** 1.05

**Q.** And the relative viability ([1]; first compound 3.162 µM)?
**A.** 1.02

**Q.** And the relative viability ([1]; first compound 10 µM)?
**A.** 1.04

**Q.** And the relative viability ([1]; first compound 31.62 µM)?
**A.** 0.989

**Q.** What about the relative viability ([1]; first compound 100 µM) of the same cell line?
**A.** 0.987

**Q.** And the relative viability (Bicalutamide + Olaparib; first compound 0.08 µM)?
**A.** 0.386

**Q.** What about the relative viability (Bicalutamide + Olaparib; first compound 0.253 µM) of the same cell line?
**A.** 0.347

**Q.** What about the relative viability (Bicalutamide + Olaparib; first compound 0.8 µM) of the same cell line?
**A.** 0.406

**Q.** What about the relative viability (Bicalutamide + Olaparib; first compound 2.53 µM) of the same cell line?
**A.** 0.522

**Q.** And the relative viability ([2]; first compound 1 µM)?
**A.** 1.15

**Q.** And the relative viability ([2]; first compound 3.162 µM)?
**A.** 0.976

**Q.** What about the relative viability ([2]; first compound 10 µM) of the same cell line?
**A.** 1.11

**Q.** And the relative viability ([2]; first compound 31.62 µM)?
**A.** 0.966

**Q.** What about the relative viability ([2]; first compound 100 µM) of the same cell line?
**A.** 1.03

**Q.** What about the relative viability (Bicalutamide + Dasatinib; first compound 0.08 µM) of the same cell line?
**A.** 0.523

**Q.** And the relative viability (Bicalutamide + Dasatinib; first compound 0.253 µM)?
**A.** 0.399

**Q.** And the relative viability (Bicalutamide + Dasatinib; first compound 0.8 µM)?
**A.** 0.576

**Q.** What about the relative viability (Bicalutamide + Dasatinib; first compound 2.53 µM) of the same cell line?
**A.** 0.431
